Results: the supplement of paper PMC11451515

Legend:
Conditions in all cases: 48 h
SEM cells [1] = assay: AUC of viability dose-response curve (% viability x log10 dose units); higher = less sensitive
Method in brief: (§1)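 Leukemia cells adapted to each medium were seeded at 500 or 1000 cells/well in 1536-well plates and dosed with library compounds in DMSO at 11 threefold doses from 47 μM to 0.79 nM for 48 h at 37°C. CellTiter-Glo One luminescence was normalised per plate to DMSO and cell-free wells, then fitted with a four-parameter log-logistic model over log10 doses. Area under the curve was taken from this fit by the trapezoidal rule, with curves above full viability scaled and curves failing quality control removed.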

NOMO1 [2] = assay: as above
Method in brief: as §1

P12-Ichikawa [3] = assay: as above
Method in brief: as §1

SEM cells [4] = assay: cell viability relative to DMSO control; higher = less cytotoxic
Method in brief: (§2)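 Library compounds in DMSO were pin-dosed in an 11-point threefold series (47 μM to 0.79 nM) onto leukemia cells in 1536-well plates (5 μl). Plates held 500 cells/well of NOMO1 or SEM or 1000 cells/well of P12-Ichikawa, each adapted for at least four passages in each medium. Luminescence was read with CellTiter-Glo One after 48 h at 37°C. Viability means the per-plate percentage relative to DMSO wells, using cell-free wells as background.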

NOMO1 [5] = assay: as above
Method in brief: as §2

P12-Ichikawa [6] = assay: as above
Method in brief: as §2

N=C(NCCCCCCNC(=N)NC(=N)Nc1ccc(Cl)cc1)NC(=N)Nc1ccc(Cl)cc1
AUC of viability dose-response curve
Conditions	NOMO1 [2]	P12-Ichikawa [3]	SEM cells [1]
HPLM + 10% dialyzed FBS	454	452	453
RPMI 5 mM glucose + 10% FBS	409	416	468
RPMI 5 mM glucose + 10% dialyzed FBS	440	419	420

cell viability [%]
Conditions	NOMO1 [5]	P12-Ichikawa [6]	SEM cells [4]
HPLM + 10% dialyzed FBS, 0.000781 µM	82	89.4	95.6
HPLM + 10% dialyzed FBS, 0.00234 µM	88.2	95.2	104
HPLM + 10% dialyzed FBS, 0.00702 µM	100	93	95.6
HPLM + 10% dialyzed FBS, 0.0211 µM	90.4	95.7	95.2
HPLM + 10% dialyzed FBS, 0.0632 µM	106	92.6	101
HPLM + 10% dialyzed FBS, 0.19 µM	111	93.3	104
HPLM + 10% dialyzed FBS, 0.569 µM	105	95.2	104
HPLM + 10% dialyzed FBS, 1.71 µM	113	101	93.9
HPLM + 10% dialyzed FBS, 5.12 µM	89	92.9	92.2
HPLM + 10% dialyzed FBS, 15.4 µM	87.6	97.9	86.8
HPLM + 10% dialyzed FBS, 46.1 µM	56.5	93.8	52
RPMI 5 mM glucose + 10% FBS, 0.000781 µM	75.4	83.8	98.4
RPMI 5 mM glucose + 10% FBS, 0.00234 µM	92.9	82.8	102
RPMI 5 mM glucose + 10% FBS, 0.00702 µM	79.1	92.1	104
RPMI 5 mM glucose + 10% FBS, 0.0211 µM	96.3	90.1	97.5
RPMI 5 mM glucose + 10% FBS, 0.0632 µM	96.1	93.6	93.4
RPMI 5 mM glucose + 10% FBS, 0.19 µM	85.5	97.6	107
RPMI 5 mM glucose + 10% FBS, 0.569 µM	93.2	91.4	96.4
RPMI 5 mM glucose + 10% FBS, 1.71 µM	88.5	80.2	104
RPMI 5 mM glucose + 10% FBS, 5.12 µM	91.1	95.1	107
RPMI 5 mM glucose + 10% FBS, 15.4 µM	87.4	81.2	97.6
RPMI 5 mM glucose + 10% FBS, 46.1 µM	30.9	56.3	68
RPMI 5 mM glucose + 10% dialyzed FBS, 0.000781 µM	79.5	85.4	83.6
RPMI 5 mM glucose + 10% dialyzed FBS, 0.00234 µM	88.9	85.3	92.9
RPMI 5 mM glucose + 10% dialyzed FBS, 0.00702 µM	90.6	90.4	93.4
RPMI 5 mM glucose + 10% dialyzed FBS, 0.0211 µM	90.5	86.9	87.9
RPMI 5 mM glucose + 10% dialyzed FBS, 0.0632 µM	105	94.1	89.3
RPMI 5 mM glucose + 10% dialyzed FBS, 0.19 µM	103	95.5	96.7
RPMI 5 mM glucose + 10% dialyzed FBS, 0.569 µM	101	87.5	90.9
RPMI 5 mM glucose + 10% dialyzed FBS, 1.71 µM	105	88.1	85.8
RPMI 5 mM glucose + 10% dialyzed FBS, 5.12 µM	100	86	103
RPMI 5 mM glucose + 10% dialyzed FBS, 15.4 µM	85.6	89.3	80.9
RPMI 5 mM glucose + 10% dialyzed FBS, 46.1 µM	41.5	70.3	42.1

CCOC(=O)C/1=C(O)/C(=O)N(CC2=CC=CC=C2)C1
AUC of viability dose-response curve
Conditions	NOMO1 [2]	P12-Ichikawa [3]	SEM cells [1]
HPLM + 10% dialyzed FBS	459	462	463
RPMI 5 mM glucose + 10% FBS	446	466	469
RPMI 5 mM glucose + 10% dialyzed FBS	462	468	468

cell viability [%]
Conditions	NOMO1 [5]	P12-Ichikawa [6]	SEM cells [4]
HPLM + 10% dialyzed FBS, 0.000781 µM	95.4	114	97.8
HPLM + 10% dialyzed FBS, 0.00234 µM	113	114	98.5
HPLM + 10% dialyzed FBS, 0.00702 µM	129	114	98
HPLM + 10% dialyzed FBS, 0.0211 µM	124	112	91
HPLM + 10% dialyzed FBS, 0.0632 µM	110	111	110
HPLM + 10% dialyzed FBS, 0.19 µM	106	113	108
HPLM + 10% dialyzed FBS, 0.569 µM	103	109	108
HPLM + 10% dialyzed FBS, 1.71 µM	122	109	120
HPLM + 10% dialyzed FBS, 5.12 µM	114	99.1	111
HPLM + 10% dialyzed FBS, 15.4 µM	103	99.8	106
HPLM + 10% dialyzed FBS, 46.1 µM	95.6	100	86.1
RPMI 5 mM glucose + 10% FBS, 0.000781 µM	102	116	99
RPMI 5 mM glucose + 10% FBS, 0.00234 µM	113	121	104
RPMI 5 mM glucose + 10% FBS, 0.00702 µM	98.3	115	94.4
RPMI 5 mM glucose + 10% FBS, 0.0211 µM	99.2	119	90.1
RPMI 5 mM glucose + 10% FBS, 0.0632 µM	98.6	128	111
RPMI 5 mM glucose + 10% FBS, 0.19 µM	99.5	120	111
RPMI 5 mM glucose + 10% FBS, 0.569 µM	111	106	99.4
RPMI 5 mM glucose + 10% FBS, 1.71 µM	95.9	122	99.2
RPMI 5 mM glucose + 10% FBS, 5.12 µM	95.7	114	98.3
RPMI 5 mM glucose + 10% FBS, 15.4 µM	95.7	106	94.9
RPMI 5 mM glucose + 10% FBS, 46.1 µM	103	99.5	83.9
RPMI 5 mM glucose + 10% dialyzed FBS, 0.000781 µM	102	107	119
RPMI 5 mM glucose + 10% dialyzed FBS, 0.00234 µM	118	109	113
RPMI 5 mM glucose + 10% dialyzed FBS, 0.00702 µM	110	123	105
RPMI 5 mM glucose + 10% dialyzed FBS, 0.0211 µM	109	111	125
RPMI 5 mM glucose + 10% dialyzed FBS, 0.0632 µM	110	113	109
RPMI 5 mM glucose + 10% dialyzed FBS, 0.19 µM	115	111	111
RPMI 5 mM glucose + 10% dialyzed FBS, 0.569 µM	105	120	108
RPMI 5 mM glucose + 10% dialyzed FBS, 1.71 µM	111	106	125
RPMI 5 mM glucose + 10% dialyzed FBS, 5.12 µM	91.2	114	108
RPMI 5 mM glucose + 10% dialyzed FBS, 15.4 µM	103	107	106
RPMI 5 mM glucose + 10% dialyzed FBS, 46.1 µM	95.1	99.2	93.7

CN1CCN(c2ccc([N+](=O)[O-])c3no[n+]([O-])c23)CC1
AUC of viability dose-response curve
Conditions	NOMO1 [2]	P12-Ichikawa [3]	SEM cells [1]
HPLM + 10% dialyzed FBS	457	435	418
RPMI 5 mM glucose + 10% FBS	432	437	464
RPMI 5 mM glucose + 10% dialyzed FBS	421	436	424

cell viability [%]
Conditions	NOMO1 [5]	P12-Ichikawa [6]	SEM cells [4]
HPLM + 10% dialyzed FBS, 0.000781 µM	86.5	84.1	93.2
HPLM + 10% dialyzed FBS, 0.00234 µM	101	85.5	89
HPLM + 10% dialyzed FBS, 0.00702 µM	110	87.8	87.3
HPLM + 10% dialyzed FBS, 0.0211 µM	114	93.8	94.7
HPLM + 10% dialyzed FBS, 0.0632 µM	107	99	81.1
HPLM + 10% dialyzed FBS, 0.19 µM	111	91.5	95.2
HPLM + 10% dialyzed FBS, 0.569 µM	100	94.2	97
HPLM + 10% dialyzed FBS, 1.71 µM	105	90.6	85.9
HPLM + 10% dialyzed FBS, 5.12 µM	116	95.7	88.7
HPLM + 10% dialyzed FBS, 15.4 µM	86.6	95.2	82.2
HPLM + 10% dialyzed FBS, 46.1 µM	56.6	82.9	52.4
RPMI 5 mM glucose + 10% FBS, 0.000781 µM	88.4	86.1	84.6
RPMI 5 mM glucose + 10% FBS, 0.00234 µM	99.6	92.4	103
RPMI 5 mM glucose + 10% FBS, 0.00702 µM	87.6	93.1	91.4
RPMI 5 mM glucose + 10% FBS, 0.0211 µM	93.3	89	101
RPMI 5 mM glucose + 10% FBS, 0.0632 µM	92.9	94.7	105
RPMI 5 mM glucose + 10% FBS, 0.19 µM	103	97.7	106
RPMI 5 mM glucose + 10% FBS, 0.569 µM	89.5	93.2	87.4
RPMI 5 mM glucose + 10% FBS, 1.71 µM	85.1	88.1	101
RPMI 5 mM glucose + 10% FBS, 5.12 µM	94.1	95.4	110
RPMI 5 mM glucose + 10% FBS, 15.4 µM	83.9	86.6	98.4
RPMI 5 mM glucose + 10% FBS, 46.1 µM	68.1	91.3	69.1
RPMI 5 mM glucose + 10% dialyzed FBS, 0.000781 µM	81.5	91.9	85.9
RPMI 5 mM glucose + 10% dialyzed FBS, 0.00234 µM	78.1	91.9	97.3
RPMI 5 mM glucose + 10% dialyzed FBS, 0.00702 µM	91.3	91.2	93.4
RPMI 5 mM glucose + 10% dialyzed FBS, 0.0211 µM	85.6	92.1	89.3
RPMI 5 mM glucose + 10% dialyzed FBS, 0.0632 µM	96.1	98.8	85.2
RPMI 5 mM glucose + 10% dialyzed FBS, 0.19 µM	95.6	91.8	99.4
RPMI 5 mM glucose + 10% dialyzed FBS, 0.569 µM	92.5	93.6	99.1
RPMI 5 mM glucose + 10% dialyzed FBS, 1.71 µM	95.9	89	93.3
RPMI 5 mM glucose + 10% dialyzed FBS, 5.12 µM	86.6	90.2	92.4
RPMI 5 mM glucose + 10% dialyzed FBS, 15.4 µM	87.4	91.1	76.1
RPMI 5 mM glucose + 10% dialyzed FBS, 46.1 µM	72.4	77.8	46.1
